Measurements: ChEMBL document CHEMBL5537208 (J Med Chem, 2024)
≈ marks a conversion by molar mass, not a printed value.

Assays:
[1] = Apparent permeability across basal to apical side in MDCKI-MDR1 cells; format: ADME, cell-based, Canis lupus familiaris; settings: dog, MDCK-MDR1
[2] = Clearance in dog; format: ADME, Canis lupus familiaris; settings: in vivo
[3] = Apparent permeability in wild-type MDCK-II cells; format: ADME, cell-based, Canis lupus familiaris; settings: dog
[4] = In vivo receptor occupancy at OX2R in Wistar rat brain at 100 mg/kg, po measured after 1 hr relative to control; format: functional
[5] = In vivo receptor occupancy at OX2R in Wistar rat brain at 30 mg/kg, po measured after 1 hr relative to control; format: functional
[6] = Drug concentration in cerebrospinal fluid of Wistar rat at 1 mg/kg, po measured after 1 hr by LC-tandem MS analysis; format: ADME, organism-based; settings: read-out: Ct
[7] = Drug absorption in rat; format: ADME; settings: in vivo
[8] = Unbound drug concentration in Wistar rat brain at 100 mg/kg, po measured after 1 hr by LC-tandem MS analysis; format: ADME, organism-based; settings: in vivo
[9] = Solubility of compound in FeSSIF; format: ADME
[10] = in vitro; settings: rat, liver microsomes
[11] = Thermodynamic solubility in FaSSIF at pH 6.5; format: ADME; settings: read-out: Therm_solubility
[12] = Drug concentration in Wistar rat Cerebrospinal fluid at 30 mg/kg, po measured after 1 hr by LC-tandem MS analysis; format: ADME, organism-based; settings: read-out: Ct
[13] = Unbound drug concentration in Wistar rat plasma at 1 mg/kg, po measured after 1 hr by LC-tandem MS analysis; format: ADME, organism-based; settings: in vivo
[14] = Apparent permeability across apical to basal side in MDCKI-MDR1 cells; format: ADME, cell-based, Canis lupus familiaris; settings: dog, MDCK-MDR1
[15] = Drug absorption in dog; format: ADME, Canis lupus familiaris; settings: in vivo
[16] = biological target: T1, Orexin receptor type 2 (Homo sapiens, UniProt O43614)
T1 sequence (O43614 whole entry): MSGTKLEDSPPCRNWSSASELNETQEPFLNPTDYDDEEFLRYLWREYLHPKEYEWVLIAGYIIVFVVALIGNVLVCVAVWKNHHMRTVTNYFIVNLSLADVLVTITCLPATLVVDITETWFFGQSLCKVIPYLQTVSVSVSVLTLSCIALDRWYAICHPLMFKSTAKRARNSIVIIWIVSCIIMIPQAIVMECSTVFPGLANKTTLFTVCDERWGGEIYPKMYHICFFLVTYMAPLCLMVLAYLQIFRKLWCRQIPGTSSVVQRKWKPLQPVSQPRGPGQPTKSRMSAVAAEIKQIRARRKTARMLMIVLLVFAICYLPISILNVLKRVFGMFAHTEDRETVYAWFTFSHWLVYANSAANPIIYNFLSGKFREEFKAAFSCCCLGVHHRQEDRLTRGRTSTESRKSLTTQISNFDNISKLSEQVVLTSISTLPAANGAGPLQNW
Description: Antagonist activity at human OX2R expressed in CHO cells preincubated for 120 mins followed by orexin-A addition by FLIPR assay

[17] = Ratio of unbound drug concentration in Wistar rat brain to plasma at 1 mg/kg, po measured after 1 hr by LC-tandem MS analysis; format: ADME, organism-based; settings: read-out: K(p,uu,brain)
[18] = in vitro; settings: human, liver microsomes
[19] = Unbound drug concentration in Wistar rat brain at 30 mg/kg, po measured after 1 hr by LC-tandem MS analysis; format: ADME, organism-based; settings: in vivo
[20] = Drug concentration in Wistar rat Cerebrospinal fluid at 100 mg/kg, po measured after 1 hr by LC-tandem MS analysis; format: ADME, organism-based; settings: read-out: Ct
[21] = Thermodynamic solubility in FeSSIF at pH 5.0; format: ADME; settings: read-out: Therm_solubility
[22] = biological target: T2, Orexin/Hypocretin receptor type 1 (Homo sapiens, UniProt O43613)
T2 sequence (O43613 whole entry): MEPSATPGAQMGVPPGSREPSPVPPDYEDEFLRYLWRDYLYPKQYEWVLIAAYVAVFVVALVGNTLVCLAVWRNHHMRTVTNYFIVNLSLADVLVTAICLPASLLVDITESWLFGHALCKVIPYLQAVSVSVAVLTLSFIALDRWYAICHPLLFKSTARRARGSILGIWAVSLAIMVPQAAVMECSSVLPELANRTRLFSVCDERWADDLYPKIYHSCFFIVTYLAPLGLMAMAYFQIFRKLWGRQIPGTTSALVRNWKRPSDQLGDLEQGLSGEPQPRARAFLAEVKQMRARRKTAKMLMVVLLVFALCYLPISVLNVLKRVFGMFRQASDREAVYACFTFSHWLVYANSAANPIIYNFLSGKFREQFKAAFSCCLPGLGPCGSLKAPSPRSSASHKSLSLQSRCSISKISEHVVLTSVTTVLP
Description: Antagonist activity at human OX1R expressed in CHO cells preincubated for 120 mins followed by orexin-A addition by FLIPR assay

[23] = Unbound drug concentration in Wistar rat brain at 1 mg/kg, po measured after 1 hr by LC-tandem MS analysis; format: ADME, organism-based; settings: in vivo
[24] = in vitro; settings: dog, MDCK-MDR1
Description: Efflux ratio in MDCKI-MDR1 cells

[25] = Clearance in rat; format: ADME; settings: in vivo

For `Cc1ccc(C(=O)N2CCOC[C@H]2Cc2cccc(-n3nccn3)c2)c(-n2nccn2)c1` [NIVASOREXANT], the Papp B→A [1] was 705 nm/s, the clearance [2] was 0.462 L/h/kg and the Papp [3] was 439 nm/s. The Occ [4] was 92%, the Occ [5] was 71% and the concentration at 1 h [6] was 0.718 µM. The Drug absorption [7] was “Active”, the “Drug uptake(free)” value [8] was 413 nM and the solubility [9] was 0.27 mg/mL (≈ 629 µM). It also gave a microsomal CLint at 1 µM [10] of over 1250 µL/min/mg, a solubility thermodynamic [11] of 0.072 mg/mL (≈ 168 µM) and a concentration at 1 h [12] of 0.24 µM. The “Cp(f)” value [13] was 0.227 µM, the Papp A→B [14] was 204 nm/s and the Drug absorption [15] was “Active”. The IC50 [16] was 0.227 µM, the Kp uu at 1 h [17] was 1.82 and the microsomal CLint at 1 µM [18] was 156 µL/min/mg. For the same molecule, the “Drug uptake(free)” value [19] was 92 nM, the concentration at 1 h [20] was 0.718 µM and the solubility thermodynamic [21] was 0.15 mg/mL (≈ 349 µM). For the same molecule, the IC50 [22] was 0.0017 µM, the “Drug uptake(free)” value [23] was 413 nM and the efflux ratio [24] was 3.5. The clearance [25] was 1.86 L/h/kg.
